Here are results for 85 compounds from a melting point compilation (Tetko et al.; mined from patent text by program, amines drawn as free bases though some values may be those of a salt).

For the compound `CC(C)(C)c1cc(CCCO)cc(-n2nc3ccc(S(=O)(=O)c4ccccc4)cc3n2)c1O`, the melting point lay in the range of 159 to 161 °C.
In the case of `CS(=O)(=O)Nn1c(=O)[nH]c2cc(C(F)(F)F)c(N3CCC(=O)CC3)cc2c1=O` it was 238 to 242 °C.
In the case of `CCOCC(=O)Nc1ccc(Br)c(-n2nc(CC)n(Cc3ccc(-c4ccccc4S(=O)(=O)NC(=O)OC(C)(C)C)cc3F)c2=O)c1` it was 132 to 134 °C; in that of `O=c1cc2c(nn1-c1ccc(Cl)cc1)-c1cccc(Cl)c1S(=O)CC2` (stereo not given), 217 to 219 °C.
Then `CCOc1nn(-c2cc(C(F)(F)F)ccn2)cc1CCCOc1cccc(CC(=O)O)c1`, with 128 to 130 °C; and `CCCc1nc2c(N)nc3ccccc3c2n1CC(C)(C)CC(C)=NOC`, with 196 to 198 °C.
`CS(=O)(=O)N(c1ccc(CN2N=C(c3ccc(Cl)cc3)c3ccccc3-n3cnnc32)cc1)S(C)(=O)=O` had a melting point of 220 to 221 °C.
`COc1ccc(N=C(C#Cc2ccccc2)N2CCCN(Cc3ccc(C)cc3)CC2)cc1` registered a melting point of 66 °C.
Then `O=c1oc(-c2ccccc2)cc(O)c1S(=O)(=O)Cc1ccccc1`, with 152 to 153 °C; and `O=C(Nc1nc2ccccc2n1CCCN1CCNCC1)c1ccc(C(F)(F)F)cc1`, with 184 to 185 °C.
`Cc1cc(-c2nc3cccnn3c2-c2ccnc(NC(=O)NC(C)(C)C)c2)ccc1F` gave a melting point of 234 to 235 °C.
Compound `Cc1ccc2c(OCCCl)c3ccccc3c(OCCCl)c2c1` yielded a melting point of 82 to 85 °C.
Take `CCCc1c(C(C)=O)ccc(OCc2nc3nccnc3c(=O)[nH]2)c1O`: the melting point is 224 to 226 °C.
On to `CC(=O)NC(C(=O)NCc1ccccc1)c1cn(S(=O)(=O)N(C)C)cn1` (stereo not given), for which the melting point was 145 to 147 °C.
In turn, `CCCN1C(=O)CC(=O)N(CCC)C1=O` showed a melting point of 77 to 80 °C.
Then `Oc1ccc(-c2ncc3ncc(-c4ccsc4)cc3n2)cc1`, with 248 to 250 °C; and `ICCCCCOc1ccc(C2=C(c3ccccc3)CCCc3cc(OC4CCCCO4)ccc32)cc1` (stereo not given), with 109 to 111 °C.
The compound `CCOC(=O)COc1cc2c(c(Cl)c1Cl)C(=O)C(CC#C[Si](C)(C)C)(c1ccccc1)C2` (stereo not given) yielded a melting point of 112 to 113 °C.
In the case of `Cc1ccc(N2C(=O)N(CC(=O)O)C(=O)C23CCCCC3)cc1` it was 206 °C.
Turning to `COc1cccc2c1OCN(CCc1ccccc1)C2`, the melting point lay within 63 to 66 °C.
Then `CC(C)Oc1ccccc1Oc1ccc(NC(=O)N2CCc3ccccc3CC2)cn1`, with 149 to 152 °C; and `O=C(O)c1ccc2nc(-c3ccc(C(=O)NC4CCCCC4)cc3)[nH]c2c1`, with 334 to 337 °C; and `CC(=O)NC[C@H]1CN(c2cc(F)c(N3CCC(n4nnnc4-c4ccncc4)CC3)c(F)c2)C(=O)O1`, with 202 to 204 °C.
Then `O=C(O)[C@H](CCc1ccccc1)NS(=O)(=O)c1ccc2c(c1)sc1ccccc12`, with 210 to 212 °C; and `O=C1NC(=O)C(Cc2ccc(OCCNc3ncccn3)cc2)S1` (stereo not given), with 173 °C.
With `COCCn1nc2c(N)nc3ncccc3c2c1CC(C)(C)C(N)=O`, the melting point was 254 to 257 °C.
Then `O=C(NCc1ccccc1-c1ccccc1C(=O)NCCc1ccccn1)c1ccccc1`, with 135 °C; and `CC(=O)N(N)c1ccc(C(F)(F)F)cc1NC(=O)c1ccccc1`, with 212 to 214 °C.
Then `NC(=S)NC1Cc2ccccc2C1`, with 155 °C; and `CC1(C)Oc2c(cc(Cl)c3oc(C(=O)O)cc(=O)c23)-c2ccc([N+](=O)[O-])cc21`, with 278 to 279 °C.
Turning to `COC(=O)c1cc(-c2ccc(SC)cc2)nn(CC(C)C)c1=O`, the melting point lay within 90.4 to 91.4 °C.
Regarding `CN1C(=O)[C@H](NC(=O)/C=C/c2c(Cl)cccc2Cl)N=C(c2ccccc2)c2ccccc21`, the melting point was 121 to 124 °C.
Then `CC(C)NCC(O)COc1cccc2c1CCC(O)C2` (stereo not given), with 136 to 141 °C.
On to `O=C(c1ccccc1)N1CCCC2=C1CCc1cc(Cl)ccc12`, for which the melting point lay in the range of 194 to 196 °C.
Turning to `Cc1ccc(NC(=O)c2ccc(Br)cc2)cc1N1CCN(C)CC1`, the melting point was in the range of 208 to 209 °C.
Then `O=C1C=CC(O)(C(F)(F)F)C=C1`, with 84 to 86 °C.
Take `COc1ccc2c(c1)C(=NO)c1c-2c(N2CCNCC2)nc2ccccc12`: the melting point was in the range of 146 to 147 °C.
Compound `O=c1c2cccnc2c(-c2ccccc2)cn1Cc1ccncc1` registered a melting point of 200 °C.
Compound `O=C(Nc1ncc(Br)cn1)c1ccccc1SSc1ccccc1C(=O)Nc1ncc(Br)cn1` returned a melting point of 249 to 253 °C.
`Cc1cccc(NC(=O)NCC(=O)N(CC(=O)N(CC(=O)OC(C)(C)C)c2ccccc2)c2ccccc2)c1` came in with a melting point of 76 to 80 °C.
Then `COc1cc(-c2ccc(Cl)cc2)cc2oc(=O)c(C)c(C)c12`, with 148 °C.
In turn, `Fc1ccccc1C1=NCc2cncnc2-c2ccc(Cl)cc21` registered a melting point of 122 to 124 °C.
As for `COCOc1ccc(OC)c(-c2ccc(C[C@H](NC(=O)c3c(Cl)cccc3Cl)C(=O)O)cc2)c1OC`, the melting point fell in the range of 156 to 157 °C.
In the case of `O=C(O)c1ccc2c(c1)nc(-c1ccc(OCc3cc(Cl)ccc3-c3ccc(Cl)cc3)cc1)n2C1CCCCC1` it was 243 to 244 °C; in that of `CCOC(=O)Nc1nc(-c2ccccc2)c(-c2nc3ccccc3c(=O)n2-c2cccc(Cl)c2)s1`, 235 to 236 °C; in that of `Cc1cccc2c1[nH]c1c(C(=O)O)cccc12`, 286 °C.
As to `C#Cc1ccc(Nc2c(C(=O)NOCCO)ccc(F)c2F)c(F)c1`, the melting point was 162 °C.
Then `COc1ccc(C)cc1NC(=O)Nc1ccc(N2CCN(C(=O)Oc3c(C)cccc3Cl)CC2)cc1`, with 146 to 148 °C.
In the case of `Cc1ccnc(Nc2nc(-c3ccc4c(c3)OCCO4)cs2)c1` it was 230 to 240 °C; in that of `Cc1c(Cl)cc(C(C)(C)C)c(O)c1-c1nc2cc(OC(F)(F)F)ccc2[nH]1`, 243 to 244 °C; in that of `CCC(CC)C(NS(=O)(=O)c1ccc(C#N)cc1)c1ccnn1-c1ccccc1` (stereo not given), 135 to 137 °C.
For `COc1nc(C)cnc1NS(=O)(=O)c1cccnc1-c1ccc(N(C)C)cc1`, the melting point lay in the range of 183 to 184 °C.
Then `COc1cc(Nc2nccc(Nc3ccc4c(ccn4S(=O)(=O)c4ccccc4)c3)n2)cc(OC)c1OC`, with 127 °C.
`CSc1cc2c(cc1C(F)(F)F)N(C(=O)Nc1ccc(C(=O)NCCN(C)C)cc1)CC2` displayed a melting point of 154 to 155 °C.
On to `BrCc1ccc(CCc2ccccc2)cc1`, for which the melting point is 52 to 53 °C.
In the case of `CS(=O)(=O)NCc1cccc(-c2nc(=O)c3ccccc3s2)n1` it was 188 to 190 °C; in that of `COc1ccc(S(=O)(=O)Nc2c(Cl)ncnc2Nc2ccccc2)cc1`, 174 to 175 °C; in that of `CCOC(=O)c1cc(CC)sc1Nc1ccc(Cl)cc1[N+](=O)[O-]`, 75 to 76.5 °C.
For `O=C(NCC12CC3CC(CC(C3)C1)C2)c1cccc(O)c1Cl`, the melting point was in the range of 234 to 235 °C.
With `CCOC(=O)Nc1cccc(OC)c1[N+](=O)[O-]`, the melting point was in the range of 131 to 132 °C.
In the case of `CCOC(=O)c1ncn2c1CN(Cc1ccc(OC)cc1OC)C(=O)c1cc(OC)ccc1-2` it was 204 °C; in that of `N#Cc1ccc(NC(=S)NCc2ccncc2)cc1`, 169 °C.
The compound `CC(C)(C)[C@H]1CC[C@H](CCC(=O)O)CC1` returned a melting point of 105 to 107 °C.
Then `O=c1cc2c(nn1-c1ccc(Cl)cc1)-c1cccc(Cl)c1SCC2`, with 166 to 168 °C; and `NC(=O)c1ccc(N2CCN(CCCC3OCCc4ccccc43)CC2)cc1` (racemic), with 185 °C.
In the case of `CN(C(=O)CN(C(=O)CNC(=O)Nc1cccc(S(N)(=O)=O)c1)c1ccccc1)c1ccccc1` it was 175 °C.
Turning to `CCOC(=O)N[C@H]1CC=C[C@H]2CNC(=O)[C@H]12` (racemic), the melting point was in the range of 160 to 164 °C.
`O=C1CCCC(Sc2ccccc2)C(c2ccccc2)O1` (stereo not given) yielded a melting point of 166 °C.
Compound `CCOC(=O)CNC(=O)C1=C(C(=O)Nc2ccc(Cl)cc2F)CCCC1` had a melting point of 170 °C.
Consider `NS(=O)(=O)c1cc(C(=O)O)cc([N+](=O)[O-])c1NC1CCCCC1`, for which the melting point is 185 to 186 °C.
Compound `N#Cc1cc2c3ccccc3[nH]c(=O)n2n1` displayed a melting point of 302 to 304 °C.
`COc1cc2c(cc1OC)CC(NC(=O)C1CCCN1C(C)=O)CC2` (stereo not given): the melting point is 63 to 65 °C.
Then `CNC(=O)Oc1ccc(N=Cc2ccccc2O)c2c1OC(C)(C)C2`, with 201 to 203 °C; and `NC(=S)C(F)(F)C[C@H]1CN(c2ccc(C3C=CS(=O)(=O)CC3)cc2)C(=O)O1` (stereo not given in full), with 139 to 140 °C; and `CON=C1[C@@H](c2cc(OC)c(OC)c(OC)c2)CC[C@@H]1c1cc(OC)c(OC)c(OC)c1` (relative stereo), with 61 to 63 °C.
In the case of `CCOC(=O)c1cnn(-c2ccc(F)cc2)c1Cl` it was 70 to 72 °C; in that of `ClC(=NNc1ccccc1)c1ccc(Br)cc1`, 152 to 153 °C; in that of `CCc1ccccc1NC=C1C(=O)N(c2ccccn2)N=C1C`, 183 °C.
In turn, `Cc1c(SCCCSc2ccc3ncc([N+](=O)[O-])n3n2)ccnc1CO` came in with a melting point of 127 to 129 °C.
The compound `CN(C)c1ccc(-n2ccn(C3CCc4ccccc4C3)c2=S)nn1` (stereo not given) gave a melting point of 198 to 199 °C.
For `Oc1ccc2nc(-c3cccc4c(O)cccc34)oc2c1`, the melting point was in the range of 240 to 242 °C.
With `Oc1cc(C(F)(F)F)ccc1-c1cc(Oc2ccc3cccnc3c2)ncn1`, the melting point was 210 to 212 °C.
In the case of `CC(C)c1cc(C(C)C)c(S(=O)(=O)n2ccc3ccccc32)c(C(C)C)c1` it was 131 to 133 °C.
`CCCS(=O)(=O)NCCCCn1c(=O)c2c(C)nc3cccc1n32` gave a melting point of 150 to 151 °C.
Compound `N#CCc1ccc(NC(=O)C(F)(F)C(F)(F)C(F)(F)C(F)(F)F)cc1` gave a melting point of 126 to 128 °C.
